Our source for the AC50 and activity change, negative = inhibition values is PubChem BioAssay AID540268 (Broad Institute, 2011).

This assay is described as follows: growth inhibition of yeast carrying parasite Hsp90, dose response, anti-malarial Hsp90 inhibitor project, ATP luminescence, 48 h, cherry-picked samples (AID 540268).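 On activity change, negative = inhibition: 0% = neutral control wells and -100% = positive control wells.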 Particulars: yeast expressing the parasite Hsp90, ATP luminescence.

“And” between values parts separate entries of the source, which are not always exact repeats. Equal values may be shown once. The source made the active and inactive calls. How the calls were made is not given here. A value given as a limit tells only on which side of the number the result lay.

`Cc1ccc(C(=O)N2CCN(c3ccccc3Cl)CC2)cc1[N+](=O)[O-]`: the AC50 was 4.09 µM.
Consider `CCN(CC)S(=O)(=O)c1cccc(NC(=O)c2ccc(Br)cc2)c1`, for which the AC50 is 5.81 µM.
For the compound `Cc1cc2cc(CNC(=O)c3ccc(C)c([N+](=O)[O-])c3)ccc2[nH]1`, the AC50 is 8.29 µM.
For `Cc1ccc2c(c1C)-c1c(ccc(C)c1C)C(=O)C2=O`, the AC50 was 2.67 µM.
On the same count and under the same terms, the value for `COc1ccccc1NC(=O)COC(=O)c1ccc([N+](=O)[O-])s1` was 3.02 µM; that for `Oc1ccccc1C1=NN(c2ccccc2)C(c2ccccc2)C1` (centres undefined) was 4.3 µM.
For `O=C(Nc1ccc(Cl)cc1Cl)c1cccc(N2C(=O)C=CC2=O)c1`, the AC50 was less than 0.195 µM.
On to `COc1ccc2c(c1)[C@H]1[C@H](CO2)[C@H](c2ccccc2)[C@]2(C)C(=O)Nc3ccc(Cl)cc3C(=O)N12`, for which the AC50 was 1.8 µM.
`CCOc1ccc(C(Nc2cccnc2)c2cc(Cl)c3cccnc3c2O)cc1` (centres undefined): the AC50 was 1.5 µM.
As for `NC(=O)C1CCN(C2CC(=O)N(c3ccc(F)c(Cl)c3)C2=O)CC1` (centres undefined), the AC50 was 1.67 µM.
As for `CC(=O)NC(c1ccc2ccccc2c1)c1ccc2cccnc2c1O` (centres undefined), the AC50 is 1.75 µM.
`Oc1cccc2ccc(/C=C/c3ccccc3Br)nc12`: the AC50 was 16.9 µM.
On the same count and under the same terms, as for `Cc1ccc(O)c(-c2cc(-c3cccc(Br)c3)n[nH]2)c1`, the figure is 4.38 µM; as for `COc1ccccc1N=Nc1ccc(O)c2ncccc12`, 4.31 µM.
For the compound `CCCCCCCCCCCCCCCC(O)C[N+](C)(C)CCO` (centres undefined), the AC50 was 6.61 µM.
For `O=C(c1ccc(Br)cc1)C(CN1CCOCC1)c1ccccc1` (centres undefined), the AC50 is 2.91 µM.
For the compound `Cc1ccc2nc(/C(C#N)=C\c3ccc([N+](=O)[O-])o3)[nH]c2c1`, the AC50 is less than 0.195 µM.
On the same count and under the same terms, the value for `COCCOC(=O)/C(=C/c1ccc(OC(=O)c2ccccc2)cc1)C(C)=O` was 2.68 µM.
Turning to `CC[C@@H](C)[C@H](NC(=O)OC(C)(C)C)c1nnc(S(=O)(=O)Cc2cc(C)ccc2C)o1`, the AC50 is 5.46 µM.
Take `O=[N+]([O-])c1ccc(C=Nc2ccc(Cl)c([N+](=O)[O-])c2)s1`: the AC50 is 2.13 µM.
With `CCC1C/C(=C\c2cccnc2)C(=O)/C(=C/c2cccnc2)C1` (centres undefined), the AC50 was 9.06 µM.
Consider `O=S(=O)(NC1CC2CCC1C2)c1ccc(Br)cc1` (centres undefined), for which the AC50 is 0.86 µM.
For the compound `O=C(Nc1ccccc1Cl)/C(Cl)=C(\Cl)S(=O)c1ccccc1` (centres undefined), the AC50 was 0.718 µM.
In the case of `CCOC(=O)c1cc2cc(OCc3ccccc3)ccc2nc1C`, the AC50 was 2.97 µM.
Regarding `CCOc1ccc(Br)cc1C1=NN(C(C)=O)C(c2ccc([N+](=O)[O-])s2)O1` (centres undefined), the AC50 is 8.12 µM.
Consider `O=[N+]([O-])c1ccc(Sc2nc3ccccc3o2)c([N+](=O)[O-])c1`, for which the AC50 was 3.56 µM.
As for `CCCCNc1nc(N)nc(-c2cc(Cl)ccc2O)n1`, the AC50 was 4.58 µM.
`O=C(OCC(=O)c1c[nH]c2ccccc12)c1ccc([N+](=O)[O-])s1`: the AC50 is 4.09 µM.
For `CC(C)Cn1c(=O)c(C(=O)Nc2ccncc2)c(O)c2ccccc21`, the AC50 is 8.25 µM.
`COc1ccccc1C(=O)NNC(=S)NC(=O)c1cccs1`: the AC50 is 6.92 µM.
With `Cc1ccc(S(=O)(=O)N(C(=O)c2ccncc2)c2ccc(OC(=O)c3ccncc3)cc2)cc1`, the AC50 was 0.863 µM.
Consider `O=C(OCC(=O)N1CCN(C(=O)c2ccco2)CC1)c1cc(-c2ccccc2)nc2ccccc12`, for which the AC50 was 3.6 µM.
Take `N#C/C(=C\c1cccc(Oc2ccccc2)c1)C(=O)N1CCOCC1`: the AC50 is 8.86 µM.
Still for that read-out and setting: the value for `COc1ccc(/C=C/C(=O)NC(=S)NNC(=O)c2cnccn2)cc1` was 0.854 µM; that for `O=C(OC12CC3CC(CC(C3)C1)C2)c1ccc(NCc2cc(O)ccc2O)cc1` was 8.91 µM.
As to `CCCCCCCCCCCCCCCC[n+]1cccc(C(=O)N(CC)CC)c1`, the AC50 was 2.89 µM and 8.12 µM.
On the same count and under the same terms, as for `Oc1c(C(Nc2nccs2)c2ccc(C(F)(F)F)cc2)ccc2cccnc12` (centres undefined), the figure is 2.49 µM; as for `COc1ccc(NC(=O)/C(Cl)=C(/Cl)S(=O)Cc2ccc(Cl)cc2)cn1` (centres undefined), 0.837 µM; as for `CCc1ccc(NC(=O)c2nc(S(=O)(=O)Cc3ccccc3)ncc2Cl)cc1`, 3.5 µM.
Turning to `Oc1c(Cl)cccc1Cc1cc(Cl)cc(Cl)c1O`, the AC50 is 0.618 µM.
Consider `Cc1ccc(NN2C(=O)C=C(c3ccc(Cl)cc3)C2=O)cc1`, for which the AC50 was less than 0.195 µM.
`Cc1[nH]oc(=O)c1N=Nc1c(Cl)cccc1Cl`: the AC50 is 24.9 µM.
On to `O=C(NCc1ccc2c(c1)OCO2)c1ccc(Br)cc1`, for which the AC50 was 4.46 µM.
Regarding `COc1ccc(-c2nn(-c3ccccc3)cc2C(=O)N2CCN(S(=O)(=O)c3cccc(F)c3)CC2)cc1`, the half-maximal activity concentration (AC50) was 1.15 µM.
As to `O=C1C=CC(=O)N1c1ccc(O)cc1`, the AC50 was 1.44 µM.
With `CC(C)CCOc1cccc(OCC(=O)Nc2ccncc2)c1`, the AC50 is 4.84 µM.
Take `S=C1Cc2ccccc2N1`: the AC50 was 3.36 µM.
Take `Clc1ccc(N=c2ssnc2Cl)nc1`: the AC50 was 3.19 µM.
On to `CC1=C(O)C(=O)C=C2C1=CC=C1C2(C)CCC2(C)C3CC(C)(C(=O)O)CCC3(C)CCC12C` (centres undefined), for which the AC50 is 1.48 µM.
Still for that read-out and setting: as for `COc1ccc(C2=CC3=C(Br)C(=O)C(C)(OC(=O)c4cccs4)C(=O)C3=CO2)cc1` (centres undefined), the figure is 4.28 µM.
As to `CCCCCCCCCCCCCCCC[n+]1ccc(/C=N/O)cc1`, the AC50 was less than 0.195 µM.
As to `Cc1ccc(NC(=O)c2nc(S(=O)(=O)Cc3ccccc3)ncc2Cl)cc1`, the AC50 is 4.12 µM.
The same measure, in the same setting: as for `O=c1cc2oc3cc(O)c(O)cc3c(-c3ccccc3[N+](=O)[O-])c-2cc1O`, the figure is 3.19 µM.
`CC(=O)Nc1ccc2c(c1)Cc1cc(N3C(=O)C=CC3=O)ccc1-2`: the AC50 is 0.654 µM.
For the compound `COc1cc(N=Nc2ccc3ccccc3c2)ccc1O`, the AC50 is 8.61 µM.
Regarding `Clc1ccc2[nH]c3c(c2c1)CCc1cn[nH]c1-3`, the AC50 was 8.79 µM.
On to `CC(C)Oc1ccc(C(=O)/C=C2/C(=O)Nc3ccccc32)cc1`, for which the AC50 is 2.62 µM.
`COc1ccc(C(C#N)=C2C=CC(=NO)C=C2)cc1`: the AC50 is 4.56 µM.
For `NC(=Nc1nc(-c2ccccn2)cc2ccccc12)c1ccccn1`, the concentration at half-maximal activity (AC50) is 3.78 µM.
The same measure, in the same setting: the value for `CNc1ccc2oc(C[C@H]3O[C@@]4(CC[C@H]3C)O[C@H]([C@H](C)C(=O)c3ccc[nH]3)[C@H](C)C[C@H]4C)nc2c1C(=O)O` was 0.813 µM; that for `CN(C)CC1Oc2ccccc2OC1(O)c1ccccc1` (centres undefined) was 2.98 µM.
As for `O=c1[nH]c(-c2ccccn2)nc(C(F)(F)F)c1Br`, the AC50 is 4 µM.
Still for that read-out and setting: the value for `CC1CCN(c2nc(Cl)nc(Nc3ccc([N+](=O)[O-])cc3)n2)CC1` was 24 µM; that for `O=C1C=CC(=Nc2ccc(F)cc2)O1` was 1.24 µM.
Turning to `Cn1c(SCC(=O)N/N=C/c2ccc([N+](=O)[O-])s2)nnc1-c1ccc(Cl)cc1`, the AC50 is 2.3 µM.
With `Cc1cccc(COC(=O)CCCNC(=O)c2ccc(Cl)cc2)c1`, the AC50 was 8.69 µM.
On to `COc1ccc(OC)c(NC(=O)Nc2ccc(O)c3ccccc23)c1`, for which the AC50 is less than 0.195 µM.
Still for that read-out and setting: as for `Cc1cc(C)c2c(N=NN3CCCCC3)[nH]nc2n1`, the figure is 4.73 µM; as for `Nc1nonc1C(=O)NCCN=Cc1cc(Cc2ccccc2)cc(Br)c1O`, 2.3 µM.
Consider `Oc1ccc2ccccc2c1N=Nc1nccs1`, for which the AC50 is 0.63 µM.
For `CCCCCCCCCCCCCCCC[N+](C)(C)C`, the AC50 was 8.6 µM.
On to `C=CCn1c(C)cc(C(=O)CSc2nc3ccccc3c(=O)[nH]2)c1C`, for which the AC50 is 3.28 µM.
Turning to `Cc1cc(N=Nc2ccc3ccccc3c2)ccc1O`, the AC50 is 2.93 µM.
The same measure, in the same setting: as for `COc1ccc2c(n1)Sc1nc3ccccc3nc1N2`, the figure is 12.1 µM; as for `CSc1nnc2c3cc(F)ccc3n(C)c2n1`, 5.49 µM.
Regarding `N/C(=N\OC(=O)c1ccc2ccccc2c1)c1ccccc1Cl`, the AC50 is 4.46 µM.
Take `O=C(/C(=C/O)N=Nc1cccc(C(F)(F)F)c1)c1ccccc1`: the AC50 was 4.14 µM.
For the compound `C=CCn1c(C)cc(C(=O)CSc2nnc(NCc3ccccc3)s2)c1C`, the AC50 is 4.2 µM.
For `CC1(C)CC[C@]2(C(=O)O)CC[C@]3(C)C(=CC[C@@H]4[C@@]5(C)CC[C@H](O[C@@H]6O[C@H](C(=O)O)[C@@H](O)[C@H](O[C@@H]7OC[C@H](O)[C@H](O)[C@H]7O)[C@H]6O)C(C)(C)[C@@H]5CC[C@]43C)[C@@H]2C1`, the half-maximal activity concentration (AC50) was 1.06 µM.
`O=C(C#Cc1ccccc1)c1ccco1`: the AC50 is 1.95 µM.
As for `CCCCC(=O)NC(c1ccc(Cl)cc1)c1ccc2cccnc2c1O` (centres undefined), the AC50 was 16.4 µM.
As to `CCCCCCOc1ccc(N2C(=O)CC(N3CCC(C(=O)OCC)CC3)C2=O)cc1` (centres undefined), the AC50 is 4.38 µM.
In the case of `Nc1ccccc1C#CC(=O)c1ccccc1`, the half-maximal activity concentration (AC50) was 7.65 µM.
Take `CCCC(=O)NC(c1cccs1)c1cc(Cl)c2cccnc2c1O` (centres undefined): the AC50 was 1.58 µM.
`OCCOCCn1c(C2CCCN2c2nc(-c3ccc(F)cc3)cs2)nc2cc(C(F)(F)F)ccc21` (centres undefined): the AC50 is 7.92 µM.
Same read-out and setting: the value for `CC(=O)OC1(C)CC(C)C(=O)C(C(O)CC2CC(=O)NC(=O)C2)C1` (centres undefined) was less than 0.195 µM; that for `O=C(O)c1cccc2c1Cc1cc([N+](=O)[O-])ccc1-2` was 0.808 µM.
`CC1(C)N=C(SCC(=O)Nc2ccc(Cl)cc2Cl)C(c2ccccc2)=N1`: the activity change, negative = inhibition (at 26 µM (top of the series)) is 20.1% (inactive).
With `NC(=O)c1ccc(N=Cc2ccc([N+](=O)[O-])s2)cc1`, the AC50 is 1.48 µM.
As to `O=C(/C(=C/c1ccc(Cl)cc1)c1nc2ccccc2[nH]1)c1ccccc1`, the AC50 is 7.04 µM.
On the same count and under the same terms, the value for `CC(=NNC(=S)Nc1ccccc1Cl)c1ccccn1` was 3.91 µM.
`CC(C)(C)C(=O)NCC12C=CC(O1)C1C(=O)N(c3ccccc3)C(=O)C12` (centres undefined): the AC50 is 5.05 µM.
For the compound `Cc1ccc(NC(=O)c2cc(N3C(=O)C=CC3=O)ccc2N2CCOCC2)cc1Cl`, the AC50 was less than 0.195 µM.
For `Oc1ccc(N=Nc2ccc3ccccc3c2)cc1`, the AC50 is 4.26 µM.
As for `N#CSCC(=O)c1cccc2ccccc12`, the AC50 is 1.92 µM.
Consider `Cc1c(Cc2ccccc2)c(NCCN(C)C)n2c(nc3ccccc32)c1C#N`, for which the AC50 was 0.701 µM.
Same read-out and setting: as for `O=[N+]([O-])c1ccc(N=Nc2c(Cl)cc(O)cc2Cl)cc1`, the figure is 0.401 µM.
On to `CCOC(=O)C(=Cc1ccc(-n2cncn2)cc1)C(=O)OCC`, for which the AC50 is 6.51 µM.
Take `CCN1/C(=C/c2ccc3cc(C)cc(C)c3[n+]2CC)Sc2cc(C)ccc21`: the AC50 is 2.91 µM.
